pIC50: −log10 of the molar value. Each block holds one compound with its values, some of them ahead of it.
Columns and labels:
Plasmodium falciparum = assay: Antiparasitic activity against Plasmodium falciparum 3D7 infected in human erythrocyte assessed as intraerythrocytic growth inhibition incubated for 24 hrs followed by [3H]hypoxanthine addition by microbeta scintillation counter analysis; type: functional, organism-based; conditions: 3D7, Erythrocyte
Toxoplasma gondii = assay: Antiparasitic activity against Toxoplasma gondii tachyzoites infected in human foreskin fibroblast incubated for 48 hrs followed by [5,6-3H]uracil addition and measured after 4 hrs by scintillation counter analysis; type: functional, organism-based; conditions: type III
Leishmania donovani = assay: Antiparasitic activity against amastigote stage Leishmania donovani MHOM/ET/67/L82 infected in CD-1 mouse peritoneal macrophage assessed as reduction in parasite burden incubated for 5 days by Giemsa staining based microscopy; type: functional, organism-based; conditions: MHOM/ET/67/L82, Peritoneal macrophage, 120 h
Entamoeba histolytica [1] = assay: Antiparasitic activity against Entamoeba histolytica trophozoites infected in hamster liver to induce hepatic abscess assessed as reduction in liver abscess formation at 10 mg/kg, ip for 5 days; type: functional; parameters: scale not given: the % may be the effect or the level left; conditions: time 5 day
[2] = test system: Trypanosoma brucei rhodesiense; assay: Antiparasitic activity against Trypanosoma brucei rhodesiense STIB900 bloodstream trypomastigotes assessed as parasite growth inhibition incubated for 3 days by Alamar Blue fluorometric assay; type: functional, organism-based; conditions: STIB900, 72 h
Entamoeba histolytica [3] = assay: Antiparasitic activity against Entamoeba histolytica trophozoites assessed as parasite growth inhibition incubated for 90 hrs followed by [3H]hypoxanthine addition and measured after 6 hrs by scintillation counter analysis; type: functional, organism-based
[4] = molecular target: T1, Ditrans,polycis-undecaprenyl-diphosphate synthase ((2E,6E)-farnesyl-diphosphate specific) (Escherichia coli (strain K12), UniProt P60472); assay: Inhibition of Escherichia coli UPPS
T1 sequence (P60472 whole entry): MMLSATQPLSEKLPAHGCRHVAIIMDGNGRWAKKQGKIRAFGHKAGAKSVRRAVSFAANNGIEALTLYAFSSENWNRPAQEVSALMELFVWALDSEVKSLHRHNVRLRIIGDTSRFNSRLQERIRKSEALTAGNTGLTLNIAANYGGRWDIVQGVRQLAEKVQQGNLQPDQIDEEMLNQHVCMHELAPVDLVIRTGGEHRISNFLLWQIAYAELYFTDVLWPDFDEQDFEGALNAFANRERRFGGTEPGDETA

Plasmodium berghei = assay: Antiparasitic activity against Plasmodium berghei ANKA infected in BALB/c mouse assessed as reduction in parasitemia at 25 mg/kg, ip for 4 days; type: functional; parameters: scale not given: the % may be the effect or the level left; conditions: time 4 day
Rattus norvegicus = organism: Rattus norvegicus; assay: Anti-osteoclast activity rat assessed as inhibition of bone resorption relative to control; type: functional
[5] = Drug distribution in NMRI mouse spleen at 4.2 mg/kg administered as C14-lableled compound and assessed as radioactivity and measured upto 2 hrs; type: ADME, organism-based; conditions: in vivo
[6] = Drug distribution in NMRI mouse liver at 4.2 mg/kg administered as C14-lableled compound and assessed as radioactivity and measured upto 2 hrs; type: ADME, organism-based; conditions: in vivo
[7] = Drug uptake in Beagle dog aorta at 0.15 mg/kg, iv administered as C14-lableled compound and assessed as radioactivity after 96 hrs by autoradiography; type: ADME, organism-based, Canis lupus familiaris; conditions: in vivo
[8] = Drug uptake in Beagle dog skin at 0.15 mg/kg, iv administered as C14-lableled compound and assessed as radioactivity after 96 hrs by autoradiography; type: ADME, organism-based, Canis lupus familiaris, Skin of body; conditions: in vivo
[9] = Drug uptake in Beagle dog sciatic nerve at 0.15 mg/kg, iv administered as C14-lableled compound and assessed as radioactivity after 96 hrs by autoradiography; type: ADME, organism-based, Canis lupus familiaris; conditions: in vivo
Trypanosoma cruzi = assay: Antiparasitic activity against Trypanosoma cruzi amastigotes infected in vero cells assessed as parasite growth inhibition incubated for 48 hrs by light microscopy; type: functional, organism-based
[10] = Drug uptake in Beagle dog small intestine at 0.15 mg/kg, iv administered as C14-lableled compound and assessed as radioactivity after 96 hrs by autoradiography; type: ADME, organism-based, Canis lupus familiaris; conditions: in vivo
[11] = Drug uptake in Beagle dog pancreas at 0.15 mg/kg, iv administered as C14-lableled compound and assessed as radioactivity after 96 hrs by autoradiography; type: ADME, organism-based, Canis lupus familiaris; conditions: in vivo
[12] = Drug uptake in Beagle dog lung at 0.15 mg/kg, iv administered as C14-lableled compound and assessed as radioactivity after 96 hrs by autoradiography; type: ADME, organism-based, Canis lupus familiaris; conditions: in vivo
[13] = Drug uptake in Beagle dog heart at 0.15 mg/kg, iv administered as C14-lableled compound and assessed as radioactivity after 96 hrs by autoradiography; type: ADME, organism-based, Canis lupus familiaris; conditions: in vivo
[14] = Drug uptake in Beagle dog thyroid gland at 0.15 mg/kg, iv administered as C14-lableled compound and assessed as radioactivity after 96 hrs by autoradiography; type: ADME, organism-based, Canis lupus familiaris; conditions: in vivo
[15] = Drug uptake in Beagle dog knee cartilage at 0.15 mg/kg, iv administered as C14-lableled compound and assessed as radioactivity after 96 hrs by autoradiography; type: ADME, organism-based, Canis lupus familiaris, Cartilage tissue; conditions: in vivo
[16] = Drug uptake in Beagle dog adrenal tissue at 0.15 mg/kg, iv administered as C14-lableled compound and assessed as radioactivity after 96 hrs by autoradiography; type: ADME, organism-based, Canis lupus familiaris; conditions: in vivo
[17] = Drug uptake in Beagle dog spleen at 0.15 mg/kg, iv administered as C14-lableled compound and assessed as radioactivity after 96 hrs by autoradiography; type: ADME, organism-based, Canis lupus familiaris; conditions: in vivo
[18] = Drug uptake in Beagle dog liver at 0.15 mg/kg, iv administered as C14-lableled compound and assessed as radioactivity after 96 hrs by autoradiography; type: ADME, organism-based, Canis lupus familiaris; conditions: in vivo

pIC50 (Leishmania donovani): < 3.70
Structure (SMILES): O=P(O)(O)C(O)(CCc1cccnc1)P(=O)(O)O
pIC50 (Plasmodium falciparum): < 3.70 | pIC50 (Toxoplasma gondii): < 3.70

Structure (SMILES): CCCCCCCCCCC(O)(P(=O)(O)O)P(=O)(O)O
Activity (Entamoeba histolytica [1]): 68% | pIC50 (Toxoplasma gondii): 6.55

pIC50 (Leishmania donovani): < 3.70 | pIC50 [2]: 4.04
Structure (SMILES): CCCCCC(O)(P(=O)(O)O)P(=O)(O)O
pIC50 (Plasmodium falciparum): 3.89 | pIC50 (Toxoplasma gondii): 5.04

Structure (SMILES): O=P(O)(O)C(O)(Nc1cccc(-c2ccccc2)c1)P(=O)(O)O
pIC50 (Entamoeba histolytica [3]): 5.18 | pIC50 (Plasmodium falciparum): < 3.70

Structure (SMILES): O=P(O)(O)C(O)(Nc1ccc(-c2ccccc2)cc1)P(=O)(O)O
pIC50 (Entamoeba histolytica [3]): 5.06 | pIC50 (Plasmodium falciparum): 4.12

pIC50 [4]: 6.23
Structure (SMILES): O=P(O)(O)C(O)(Cc1cccc(-c2cccc3oc4ccccc4c23)c1)P(=O)(O)O

pIC50 [2]: 5.77
Structure (SMILES): CCCCCCCCNC(O)(P(=O)(O)O)P(=O)(O)O

Structure (SMILES): CCCC(O)(P(=O)(O)O)P(=O)(O)O
pIC50 (Entamoeba histolytica [3]): 3.80 | pIC50 (Plasmodium falciparum): 5.26 | Activity (Plasmodium berghei): 80%

Structure (SMILES): CCCCCCCCCC(O)(P(=O)(O)O)P(=O)(O)O
pIC50 (Plasmodium falciparum): 6.08 | pIC50 (Toxoplasma gondii): 6.26

Structure (SMILES): Cc1cccnc1NC(P(=O)(O)O)P(=O)(O)O
pIC50 (Plasmodium falciparum): < 3.70

Structure (SMILES): CC(N)CC(O)(P(=O)(O)O)P(=O)(O)O (stereo not drawn)
pIC50 (Plasmodium falciparum): < 3.70 | pIC50 (Leishmania donovani): < 3.70

Structure (SMILES): NCCCC(O)(P(=O)(O)O)P(=O)(O)O [ALENDRONIC ACID]
fold change (FC) (Rattus norvegicus): 400

Structure (SMILES): O=P(O)(O)C(Cl)(Cl)P(=O)(O)O [CLODRONIC ACID]
fold change (FC) (Rattus norvegicus): 10

Structure (SMILES): CC(O)(P(=O)(O)O)P(=O)(O)O [ETIDRONIC ACID]
fold change (FC) (Rattus norvegicus): 1

Structure (SMILES): CCCCCN(C)CCC(O)(P(=O)(O)O)P(=O)(O)O [IBANDRONIC ACID]
fold change (FC) (Rattus norvegicus): 1000

Drug uptake [5]: 20% | Drug uptake [6]: 20%
Structure (SMILES): NCCC(O)(P(=O)(O)O)P(=O)(O)O [PAMIDRONIC ACID]
fold change (FC) (Rattus norvegicus): 100

Structure (SMILES): O=P(O)(O)C(O)(Cc1cccnc1)P(=O)(O)O [RISEDRONIC ACID]
fold change (FC) (Rattus norvegicus): 2000

Structure (SMILES): O.O=P(O)(O)C(O)(Cn1ccnc1)P(=O)(O)O [ZOLEDRONIC ACID]
Drug uptake [7]: > 0.1 nmol/g | Drug uptake [8]: > 0.1 nmol/g | Drug uptake [9]: > 0.1 nmol/g | pIC50 (Trypanosoma cruzi): 4.46 | Drug uptake [10]: > 0.1 nmol/g | Drug uptake [11]: > 0.1 nmol/g | Drug uptake [12]: > 0.1 nmol/g | pIC50 (Plasmodium falciparum): < 3.70 | pIC50 (Toxoplasma gondii): 5.17 | fold change (FC) (Rattus norvegicus): 6700 | Drug uptake [13]: > 0.1 nmol/g | Drug uptake [14]: 0.3 nmol/g | pIC50 [2]: 5.07 | Drug uptake [15]: 0.15 nmol/g | Drug uptake [16]: > 0.1 nmol/g | Drug uptake [17]: > 0.1 nmol/g | Drug uptake [18]: > 0.1 nmol/g
